Tests used:
[1] = LNP size and polydispersity index by Malvern Zetasizer dynamic light scattering (CA HA modFlu mRNA LNPs); format: physicochemical; settings: DLS; for Size (nm): LNP of the ionizable lipid:cholesterol:DSPC:ALC-0159 about 46.3:42.7:9.4:1.6, N:P about 6:1, CA HA modFlu mRNA; for PDI: LNP with CA HA modFlu mRNA
Procedure: (§1) Lipid nanoparticles were prepared and tested according to the general procedures described in U.S. Pat. No. 9,737,619 (PCT Pub. No. WO2015/199952) and U.S. Pat. No. 10,166,298 (PCT Pub. No. WO 2017/075531) and PCT Pub. No. WO2020/146805. The novel ionizable lipids of the invention, cholesterol, distearoylphosphatidylcholine (DSPC) and ALC-0159 2-[(polyethylene glycol)-2000]-N,N ditetradecylacetamide were solubilized in ethanol at a molar ratio of about 46.3:42.7:9.4:1.6. Lipid nanoparticles were made by mixing the lipids containing organic phase with the mRNA containing aqueous phase using an N:P ratio of about 6:1. The mRNA was diluted in buffer. Syringe pumps were used to mix the ethanolic lipid solution with the mRNA aqueous solution. The ethanol was then removed, and the external buffer replaced with another buffer (e.g., Tris) by dialysis. Finally, the lipid nanoparticles were filtered.
(§2) Total RNA concentration and encapsulation efficiency was assessed using the RiboGreen RNA quantitation assay. RNA integrity pre and post formulation was monitored by Agilent Fragment Analyzer capillary gel electrophoresis. Malvern Zetasizer dynamic light scattering (DLS) was used to determine LNP size and polydispersity index (PDI). In vitro expression of the novel ionizable lipid nanoparticles was assessed in HEK293F and Hela cells similar to described in Example 72. Nuclear count and identification of cells stained positive for gene of interest was done on an Opera Phenix high content imager (PerkinElmer, USA).

[2] = Encapsulation efficiency, RiboGreen RNA quantitation assay (CA HA modFlu mRNA LNPs); format: physicochemical; settings: LNP with CA HA modFlu mRNA
Procedure: as §1, §2

HEK293F cells = assay: In vitro expression of novel ionizable lipid nanoparticles, high content imaging (CA HA modFlu mRNA); format: cell-based; settings: LNP with CA HA modFlu mRNA
Procedure: (§3) Plated Hek293T or Hela cells were dosed with lipid nanoparticles in a total volume of 40 μl cell culture media and incubated overnight at 37° C. and 5% CO2. After fixation with 4% paraformaldehyde in PBS cells were washed in PBS containing 0.3% Triton-X100 and 3% BSA (w/v), followed by nuclear staining with Hoechst and antibody staining for the encoded gene of interest. Nuclear count and identification of cells stained positive for gene of interest was done on an Opera Phenix high content imager (PerkinElmer, USA).
as §1, §2

Hela cells = assay: as above; format: cell-based; settings: LNP with CA HA modFlu mRNA
Procedure: as §3, §1, §2

SMILES | Size (nm) [1] [nm] | PDI [1] | EE % [2] [%] | EC50 Hek293F (ng/well) (HEK293F cells) | EC50 Hela (ng/well) (Hela cells)
CCCCCCCCC(CCCCCC)C(=O)OCC(COC(=O)C(CCCCCC)CCCCCCCC)N1CCC2(CCN(C(C)CCCO)CC2)CC1 (centres unmarked) [Example 21, 2-(9-(5-hydroxypentan-2-yl)-3,9-diazaspiro[5.5]undecan-3-yl)propane-1,3-diyl bis(2-hexyldecanoate)] | 159 | 0.064 | 99 | 0.28 | 0.41
CCCCCCCC(CCCCCCC)C(=O)OCC(COC(=O)C(CCCCCCC)CCCCCCC)N1CCC2(CCN(CCCCO)C2)CC1 [Example 22, 2-(2-(4-hydroxybutyl)-2,8-diazaspiro[4.5]decan-8-yl)propane-1,3-diyl bis(2-heptylnonanoate)] | 107 | 0.065 | 99 | 0.14 | 0.39
CCCCCCCCC(CCCCCC)C(=O)OCC(COC(=O)C(CCCCCC)CCCCCCCC)N1CCC2(CCN(CCCCO)CC2)CC1 (centres unmarked) [Example 23, 2-(9-(4-hydroxybutyl)-3,9-diazaspiro[5.5]undecan-3-yl)propane-1,3-diyl bis(2-hexyldecanoate)] | 144 | 0.090 | 100 | 0.47 | 1.2
CCCCCCCCC(CCCCCCCC)C(=O)OCC(COC(=O)C(CCCCCCCC)CCCCCCCC)N1CCC2(CCN(CCCCO)CC2)CC1 [Example 24, 2-(9-(4-hydroxybutyl)-3,9-diazaspiro[5.5]undecan-3-yl)propane-1,3-diyl bis(2-octyldecanoate)] | 82 | 0.072 | 99 | 0.48 | 0.72
CCCCCCCC(CCCCCCC)C(=O)OCC(COC(=O)C(CCCCCCC)CCCCCCC)N1CCC2(CCN(CCCCCO)CC2)CC1 [Example 25, 2-(9-(5-hydroxypentyl)-3,9-diazaspiro[5.5]undecan-3-yl)propane-1,3-diyl bis(2-heptylnonanoate)] | 137 | 0.040 | 99 | 0.42 | 0.61
CCCCCCCCC(CCCCCCC)C(=O)OCC(COC(=O)C(CCCCCCC)CCCCCCCC)N1CCC2(CCN(CCCCO)CC2)CC1 (centres unmarked) [Example 26, 2-(9-(4-hydroxybutyl)-3,9-diazaspiro[5.5]undecan-3-yl)propane-1,3-diyl bis(2-heptyldecanoate)] | 96 | 0.030 | 100 | 1.6 | 1.8
CCCCCCCCC(CCCC)C(=O)OCC(COC(=O)C(CCCC)CCCCCCCC)N1CCC2(CCN(CCCCO)CC2)CC1 (centres unmarked) [Example 27, 2-(9-(4-hydroxybutyl)-3,9-diazaspiro[5.5]undecan-3-yl)propane-1,3-diyl bis(2-butyldecanoate)] | 74 | 0.095 | 97 | 35.9 | 12.5
CCCCCCCCC(CCCCCC)CC(=O)OCC(COC(=O)CC(CCCCCC)CCCCCCCC)N1CCC2(CCN(CCCCO)CC2)CC1 (centres unmarked) [Example 28, 2-(9-(4-hydroxybutyl)-3,9-diazaspiro[5.5]undecan-3-yl)propane-1,3-diyl bis(3-hexylundecanoate)] | 96 | 0.025 | 99 | 9.9 | 6.4
CCCCCCCCC(CCCCC)C(=O)OCC(COC(=O)C(CCCCC)CCCCCCCC)N1CCC2(CCN(CCCCO)CC2)CC1 (centres unmarked) [Example 29, 2-(9-(4-hydroxybutyl)-3,9-diazaspiro[5.5]undecan-3-yl)propane-1,3-diyl bis(2-pentyldecanoate)] | 130 | 0.050 | 100 | 0.82 | 1.0
CCCCCCCCC(CC1CCC1)C(=O)OCC(COC(=O)C(CCCCCCCC)CC1CCC1)N1CCC2(CCN(CCCCO)CC2)CC1 (centres unmarked) [Example 30, 2-(9-(4-hydroxybutyl)-3,9-diazaspiro[5.5]undecan-3-yl)propane-1,3-diyl bis(2-(cyclobutylmethyl)decanoate)] | 102 | 0.030 | 99 | 12.6 | 3.3
CCCCCCCCCCCCC(CCCCCCC)C(=O)OCC(COC(=O)C(CCCCCCC)CCCCCCCCCCCC)N1CCC2(CCN(CCCCO)CC2)CC1 (centres unmarked) [Example 31, 2-(9-(4-hydroxybutyl)-3,9-diazaspiro[5.5]undecan-3-yl)propane-1,3-diyl bis(2-heptyltetradecanoate)] | 121 | 0.150 | 99 | 1.7 | 2.9
CCCCCCCCC(CC1CCCC1)C(=O)OCC(COC(=O)C(CCCCCCCC)CC1CCCC1)N1CCC2(CCN(CCCCO)CC2)CC1 (centres unmarked) [Example 32, 2-(9-(4-hydroxybutyl)-3,9-diazaspiro[5.5]undecan-3-yl)propane-1,3-diyl bis(2-(cyclopentylmethyl)decanoate)] | 132 | 0.060 | 100 | 0.96 | 0.91
CCCCCCCCC(CCCCCC)C(=O)OCC(COC(=O)C(CCCCCC)CCCCCCCC)N1CCC2(CCN(CCCCO)C2)C1 (centres unmarked) [Example 33, 2-(7-(4-hydroxybutyl)-2,7-diazaspiro[4.4]nonan-2-yl)propane-1,3-diyl bis(2-hexyldecanoate)] | 115 | 0.090 | 99 | 0.22 | 0.29
CCCCCCCCC(CCCCCC)C(=O)OCC(COC(=O)C(CCCCCC)CCCCCCCC)N1CC2(CCN(CCCCO)CC2)C1 (centres unmarked) [Example 34, 2-(7-(4-hydroxybutyl)-2,7-diazaspiro [3.5]nonan-2-yl)propane-1,3-diyl bis(2-hexyldecanoate)] | 130 | 0.040 | 99 | 2.1 | 3.8
CCCCCCCCC(CC1CC=CC1)C(=O)OCC(COC(=O)C(CCCCCCCC)CC1CC=CC1)N1CCC2(CCN(CCCCO)CC2)CC1 (centres unmarked) [Example 35, 2-(9-(4-hydroxybutyl)-3,9-diazaspiro[5.5]undecan-3-yl)propane-1,3-diyl bis(2-(cyclopent-3-en-1-ylmethyl)decanoate)] | 102 | 0.040 | 99 | 21.3 | 1.4
CCCCCCCCC(CCC1CCC1)C(=O)OCC(COC(=O)C(CCCCCCCC)CCC1CCC1)N1CCC2(CCN(CCCCO)CC2)CC1 (centres unmarked) [Example 36, 2-(9-(4-hydroxybutyl)-3,9-diazaspiro[5.5]undecan-3-yl)propane-1,3-diyl bis(2-(2-cyclobutylethyl)decanoate)] | 136 | 0.059 | 99 | 1.9 | 2.4
CCCCCCCCC(CC1CCCCC1)C(=O)OCC(COC(=O)C(CCCCCCCC)CC1CCCCC1)N1CCC2(CCN(CCCCO)CC2)CC1 (centres unmarked) [Example 37, 2-(9-(4-hydroxybutyl)-3,9-diazaspiro[5.5]undecan-3-yl)propane-1,3-diyl bis(2-(cyclohexylmethyl)decanoate)] | 143 | 0.070 | 99 | 0.67 | 0.90
CCCCC(CCCC)C(CCCC)CCC(=O)OCC(COC(=O)CCC(CCCC)C(CCCC)CCCC)N1CCC2(CCN(CCCCO)CC2)CC1 (centres unmarked) [Example 38, 2-(9-(4-hydroxybutyl)-3,9-diazaspiro[5.5]undecan-3-yl)propane-1,3-diyl bis(4,5-dibutylnonanoate)] | 146 | 0.100 | 100 | 28.1 | 7.0
CCCCCCC(CCCC)(CCCC)CC(=O)OCC(COC(=O)CC(CCCC)(CCCC)CCCCCC)N1CCC2(CCN(CCCCO)CC2)CC1 [Example 39, 2-(9-(4-hydroxybutyl)-3,9-diazaspiro[5.5]undecan-3-yl)propane-1,3-diyl bis(3,3-dibutylnonanoate)] | 134 | 0.080 | 100 | 4.1 | 3.4

— patent US20250367129A1, “Lipid Compounds and Uses Thereof” (Pfizer Inc., priority 2022, published 2025)
